From US4898975A, “Water soluble organic ammonium per halides” (Great Lakes Chemical Corporation, priority 1989, dated 1990)
Where two headings read alike, the source gives them in different places.

Legend:
[1] = Titration of oxidizable bromine (Standard Methods, Method 408A); type: physicochemical; conditions: for Ox. Br2: of the sample used for vapor pressure (Table 9)
[2] = physchem; conditions: water
[3] = Vapor pressure of aqueous organic ammonium perbromides (isoteniscope); type: physicochemical; conditions: for Vp: 26° C. (Table 9)
Description: The vapor pressures of the aqueous organic ammonium perbromides were measured using an isoteniscope as described by Farrington, et al. [Farrington, D.; Alberti, R.; William, S.; Corwell, C.; Bender, P; and Harriman, S. Experimental Physical Chemistry, Experiment 17, pp. 164-165, 7th Edition, McGraw Hill Publishing Co., New York, 1976].

[4] = type: physicochemical; conditions: closed bottle
Description: In order to determine the shelf life stability of the perbromide solutions, a series of studies were conducted to determine the percent bromine lost over time. The following tables shown below list the perbromides studied and the percent oxidizable bromine lost over time. The perbromides studied were kept in closed bottles in ambient conditions (Table 7) and at 50° C.

[5] = Water solubility of perbromides
[6] = higher aqueous ethanolammonium perbromides (Table 6)
[7] = completely soluble perbromides, aqueous solution (Table 1)
[8] = concentrated and anhydrous perbromides (Table 4)
[9] = 50° C., time elapsed 40 (months)
[10] = 50° C., time elapsed 40 (months), 1.752e+06 min
[11] = partially soluble perbromides, separated liquid phase (Table 2)

In the case of `NCCCCCCN` [Compound 16, 1,6-Hexanediammonium], the “Tit. Ox. Br2” value ([1]; perbromides precipitated out of aqueous solution (Table 3)) is reported as 51.8 % by Weight and the solubility [2] is reported as 500 mg/mL.
In the case of `NCCO` [Compound 26], the “Tit. Ox. Br2” value [1, 6] is reported as 52.6 % by Weight.
With `CCCCCCCCN` [Compound 9, Octylammonium Perbromide] the “Tit. Ox. Br2” value [1, 7] was 34.7 % by Weight.
For `NCCO` [Compound 27], the “Tit. Ox. Br2” value [1, 6] was 57.7 % by Weight, the “Ox. Br2” value [1] was 57.7 % by Weight and the Vp [3] was 116 mmHg.
In the case of `NCCO` [Compound 28], the “Tit. Ox. Br2” value [1, 6] is reported as 63.9 % by Weight.
For NaBr3 [Compound 33, reference compound], the “Ox. Br2” value [1] was 37.9 % by Weight, the vapor pressure [3] was 140 mm Hg and the Vp [3] was 145 mmHg.
In the case of `NCCO` [Compound 29], the “Tit. Ox. Br2” value [1, 6] is reported as 72.6 % by Weight.
In the case of `CCCN` [Compound 19, Propylammonium Perbromide], the “Tit. Ox. Br2” value [1, 8] is reported as 53.2 % by Weight.
With `NCCO` [Compound 1, Ethanolammonium Perbromide] the “Initial Ox. Br2” value ([4]; 50° C.) was 40.8 % by Weight, the “Change in % Br2” value [4, 9] was 1.8% and the “Final Ox. Br2” value [4, 9] was 39.0 % by Weight. For the same molecule, the “Relative Change in % Br2” value [4, 10] was 4.4%, the “Change in % Br2” value ([4]; ambient temperature, 24 months) was 1.6% and the “Final Ox. Br2” value ([4]; ambient temperature, 24 months) was 38.5 % by Weight. For the same molecule, the “Relative Change in % Br2” value ([4]; ambient temperature, 24 months, 1.0512e+06 min) was 4.0% and the “Initial Ox. Br2” value ([4]; ambient temperature) was 40.1 % by Weight.
With `CCCNCCC` [Compound 10, Dipropylammonium Perbromide] the “Tit. Ox. Br2” value [1, 11] was 45.1 % by Weight and the solubility [2] was 100 mg/mL.
In the case of `CNCCO` [Compound 5, Methylethanolammonium Perbromide], the “Tit. Ox. Br2” value [1, 7] is reported as 39.3 % by Weight, the “Ox. Br2” value [1] is reported as 39.3 % by Weight and the Vp [3] is reported as 28 mmHg.
With `CCNCCO` [Compound 6, Ethylethanolammonium Perbromide] the “Tit. Ox. Br2” value [1, 7] was 37.7 % by Weight.
In the case of Propylammonium Perbromide [Compound 22], the “Relative Change in % Br2” value ([4]; 29200 h) is reported as 2.7% and the “Relative Change in % Br2” value ([4]; ambient, 17520 h) is reported as 2.3%.
With `OCCNCCO` [Compound 20, Diethanolammonium Perbromide] the “Tit. Ox. Br2” value [1, 8] was 45.3 % by Weight.
With `BrBr` [Compound 35, Bromine, reference compound] the “Ox. Br2” value [1] was 100 % by Weight, the vapor pressure ([3]; 26° C.) was “approximately 220 mm Hg” and the Vp [3] was 223 mmHg.
For `CCCCCCN` [Compound 8, Hexylammonium Perbromide], the “Tit. Ox. Br2” value [1, 7] was 36.1 % by Weight.
In the case of `NCCO` [Compound 18, Ethanolammonium Perbromide], the “Tit. Ox. Br2” value [1, 8] is reported as 51.8 % by Weight.
In the case of `OCCNCCO` [Compound 4, Diethanolammonium Perbromide], the “Initial Ox. Br2” value ([4]; 50° C.) is reported as 37.0 % by Weight, the “Change in % Br2” value [4, 9] is reported as 7.0% and the “Final Ox. Br2” value [4, 9] is reported as 30.0 % by Weight. The “Relative Change in % Br2” value [4, 10] was 18.9% and the Vp [3] was 49 mmHg.
For `CN(C)CCO` [Compound 7, Dimethylethanolammonium Perbromide, reference compound], the Vp [3] was 30 mmHg.
For `CCCCNCCCC` [Compound 11, Dibutylammonium Perbromide], the “Ox. Br2” value [1] was 43.3 % by Weight, the “Tit. Ox. Br2” value [1, 11] was 40.9 % by Weight and the “Change in % Br2” value ([4]; ambient temperature, 16 months) was 2.1%. The “Final Ox. Br2” value ([4]; ambient temperature, 16 months) was 41.1 % by Weight, the “Relative Change in % Br2” value ([4]; ambient temperature, 16 months, 700800 min) was 4.9% and the “Initial Ox. Br2” value ([4]; ambient temperature) was 43.2 % by Weight. The Vp [3] was 38 mmHg and the solubility [5] was 10 mg/mL.
With `CCN(CC)CCO` [Compound 14, Diethylethanolammonium] the “Tit. Ox. Br2” value [1, 11] was 42.3 % by Weight, the “Solubility in water (in words)” value [5] was “only sparingly soluble in water” and the solubility [5] was 1 mg/mL.
With `CCCCN(CCCC)CCCC` [Compound 12, Tributylammonium Perbromide, reference compound] the “Ox. Br2” value [1] was 37.5 % by Weight, the “Tit. Ox. Br2” value [1, 11] was 36.0 % by Weight and the Vp [3] was 28 mmHg.
For `CCCN` [Compound 3, Propylammonium Perbromide], the “Tit. Ox. Br2” value [1, 7] was 39.3 % by Weight and the Vp [3] was 36 mmHg.
In the case of “Ethanolammonium Perbromide [Compound 21]”, the “Relative Change in % Br2” value ([4]; 29200 h) is reported as 3.1% and the “Relative Change in % Br2” value ([4]; ambient, 17520 h) is reported as 2.0%.
